In ChEMBL document CHEMBL1201862, “PubChem BioAssay data set” (2004):
Active and inactive are the calls of the source.

Experiments:
[1] = Luminescence Cell-Based Dose Response HTS to Identify Inhibitors of 5'UTR Stem-Loop Driven Prion Protein mRNA Translation in H4 Neuroglioblastoma Cells. [Related pubchem assays: 1827 (Project Summary), 1813 (Primary HTS)]; type: functional
[2] = target: T1, Heat shock factor protein 1 (Mus musculus, UniProt P38532); experiment: decrease of HSF1-responsive luciferase luminescence – cell-based, NIH3T3, dose retest, confirmation (AID 2382); type: functional;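 note: NIH3T3 fibroblasts with HSF1-driven luciferase reporter stressed by proteasome inhibitor MG132; luminescence from HSF1-driven luciferase expression after 8 hours of MG132 stress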
T1 sequence (P38532 whole entry): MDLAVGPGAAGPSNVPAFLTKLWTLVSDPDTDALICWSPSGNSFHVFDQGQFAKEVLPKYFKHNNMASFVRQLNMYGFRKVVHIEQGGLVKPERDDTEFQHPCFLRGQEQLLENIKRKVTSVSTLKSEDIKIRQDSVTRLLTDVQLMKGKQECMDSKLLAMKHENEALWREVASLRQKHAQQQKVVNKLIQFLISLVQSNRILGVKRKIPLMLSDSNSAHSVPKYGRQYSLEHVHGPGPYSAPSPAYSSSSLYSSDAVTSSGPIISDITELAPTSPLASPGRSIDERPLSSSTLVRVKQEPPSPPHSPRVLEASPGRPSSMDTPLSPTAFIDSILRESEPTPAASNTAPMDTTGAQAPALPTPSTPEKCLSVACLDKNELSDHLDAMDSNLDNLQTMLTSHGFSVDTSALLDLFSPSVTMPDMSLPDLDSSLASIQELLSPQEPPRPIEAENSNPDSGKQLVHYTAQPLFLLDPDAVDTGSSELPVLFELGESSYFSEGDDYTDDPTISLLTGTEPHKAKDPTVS

[3] = alpha-synuclein stem-loop luciferase translation blockers – H4 neuroglioma cells, luminescence, confirmation (AID 1988); type: functional, cell-based
[4] = viability of PTEN-deleted HCT116 cells – cell-based, HCT116 PTEN knockout, dose response (AID 1047); type: functional;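 note: HCT116 colon tumor cells with PTEN knocked out; cells exposed to compound for 60 hours before readout; potency for loss of cell viability measured by luminescence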
[5] = viability of HCT116 lacking mutant beta-catenin – cell-based, human colon tumor, dose response (AID 1045); type: functional;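 note: HCT116 colon tumor cells with beta catenin knocked out; cells exposed to compound for 60 hours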
Fatty acid synthase [6] = target: T2, Fatty acid synthase (Homo sapiens, UniProt P49327); experiment: inhibition of human FAS-TE enzyme activity – biochemical, endpoint fluorescence intensity, uHTS hits, dose response (AID 624327); type: functional;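 note: fluorescence from hydrolysis of an O-methyl fluorescein acyl ester substrate by the enzyme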
Fatty acid synthase [7] = target: T2, Fatty acid synthase; experiment: inhibition of human FAS-TE enzyme activity – biochemical, kinetic fluorescence intensity, dose response (AID 624326); type: functional;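 note: rate of fluorescence rise from hydrolysis of a fluorogenic O-methyl fluorescein ester substrate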
[8] = target: T3, RNA-binding protein pos-1 (Caenorhabditis elegans, UniProt G5EF15); experiment: disruptors of C. elegans POS-1 RNA interaction – biochemical, fluorescence polarization, dose response (AID 1964);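 note: purified POS-1 fused to maltose binding protein made in E. coli; potency of compounds blocking POS-1 binding to fluorescent RNA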
T3 sequence (G5EF15 whole entry): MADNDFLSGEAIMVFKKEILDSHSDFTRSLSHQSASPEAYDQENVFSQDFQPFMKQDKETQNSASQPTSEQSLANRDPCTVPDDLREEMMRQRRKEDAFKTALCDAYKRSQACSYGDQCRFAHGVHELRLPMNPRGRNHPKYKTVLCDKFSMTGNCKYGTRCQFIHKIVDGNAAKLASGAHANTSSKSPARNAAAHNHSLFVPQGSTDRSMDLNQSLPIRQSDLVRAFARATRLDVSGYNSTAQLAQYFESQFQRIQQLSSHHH

[9] = target: T4, Zinc finger protein mex-5 (Caenorhabditis elegans, UniProt Q9XUB2); experiment: potency of MEX-5 RNA-binding blockers – biochemical, C. elegans, fluorescence polarization, dose response (AID 1960)
T4 sequence (Q9XUB2 whole entry): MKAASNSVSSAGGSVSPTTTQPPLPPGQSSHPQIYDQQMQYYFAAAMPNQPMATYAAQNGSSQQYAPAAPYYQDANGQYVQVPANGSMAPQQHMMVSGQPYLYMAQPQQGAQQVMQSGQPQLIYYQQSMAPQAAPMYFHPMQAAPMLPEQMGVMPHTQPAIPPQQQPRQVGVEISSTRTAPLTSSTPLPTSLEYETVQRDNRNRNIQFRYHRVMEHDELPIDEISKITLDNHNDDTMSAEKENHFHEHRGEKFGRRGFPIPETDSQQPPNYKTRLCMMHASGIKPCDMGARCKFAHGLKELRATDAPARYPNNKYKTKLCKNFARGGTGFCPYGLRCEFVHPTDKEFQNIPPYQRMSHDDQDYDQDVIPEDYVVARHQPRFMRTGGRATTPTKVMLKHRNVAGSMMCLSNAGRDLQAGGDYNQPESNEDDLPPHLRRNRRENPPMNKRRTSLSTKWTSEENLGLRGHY

[10] = Trypanosoma cruzi growth suppression in host cells – NIH3T3 host cells, beta-gal luminescence, confirmation (AID 2044); type: functional, cell-based;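 note: intracellular parasites grown in NIH/3T3 mouse fibroblasts as host cells; luminescent beta-galactosidase reporter signal from transgenic T. cruzi replicating inside host cells; inhibitors lower the luminescence signal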
[11] = NIH3T3 cell viability loss – ATP luminescence, mouse fibroblasts, counter-screen, dose response (AID 2010); type: functional, cell-based;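 note: cells exposed to compound for about 90 hours before reading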
[12] = microbe, parasite or virus in culture; type: functional; conditions: Mycobacterium tuberculosis
Cytochrome P450 2D6 = Cytochrome P450 2D6 (Homo sapiens, UniProt P10635);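 note: CYP2D6 member of a cytochrome P450 panel assay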
[13] = viability of uninfected HEp-2 cells – cell-based, HTS, cytotoxicity control for RSV inhibitor project, dose response (AID 2410); type: functional; conditions: human respiratory syncytial virus
INS1 = experiment: INS-1E survival protection against cytokine death – cell-based, luminescence, retest, dose response (AID 449756); type: functional; conditions: Rattus norvegicus;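 note: cell death triggered by IL-1 beta plus TNF-alpha plus IFN-gamma mixture; protective hits raise ATP signal compared with cytokine alone wells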
[14] = target: T5, Corticotropin-releasing factor receptor 2/Corticotropin-releasing factor-binding protein (Homo sapiens, UniProt P24387+Q13324); experiment: Dose Response confirmation of uHTS hits for small molecule antagonists of the CRF-binding protein and CRF-R2 receptor complex.; type: functional; conditions: read-out: IC50_Mean
T5 sequence (Q13324 whole entry): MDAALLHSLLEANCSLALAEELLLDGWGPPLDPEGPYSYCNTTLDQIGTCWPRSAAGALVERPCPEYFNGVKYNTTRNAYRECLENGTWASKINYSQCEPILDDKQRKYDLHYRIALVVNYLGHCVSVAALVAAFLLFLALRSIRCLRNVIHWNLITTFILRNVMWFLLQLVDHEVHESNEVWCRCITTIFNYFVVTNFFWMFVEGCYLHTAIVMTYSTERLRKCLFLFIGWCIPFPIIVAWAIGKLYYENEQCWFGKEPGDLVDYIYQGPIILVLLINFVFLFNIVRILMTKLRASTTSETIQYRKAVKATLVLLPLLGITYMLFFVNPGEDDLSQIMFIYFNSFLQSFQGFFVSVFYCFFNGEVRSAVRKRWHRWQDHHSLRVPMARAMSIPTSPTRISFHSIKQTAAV
T5 sequence (P24387 whole entry): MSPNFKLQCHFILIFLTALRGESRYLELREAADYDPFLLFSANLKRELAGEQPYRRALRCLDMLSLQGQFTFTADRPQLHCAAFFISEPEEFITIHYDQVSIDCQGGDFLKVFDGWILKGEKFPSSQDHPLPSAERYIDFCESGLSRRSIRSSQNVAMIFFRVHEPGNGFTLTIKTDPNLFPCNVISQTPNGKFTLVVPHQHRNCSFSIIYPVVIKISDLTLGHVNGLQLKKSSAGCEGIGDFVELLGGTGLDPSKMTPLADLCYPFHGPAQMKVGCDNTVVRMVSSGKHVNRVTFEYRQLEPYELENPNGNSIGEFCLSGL

[15] = target: T5, Corticotropin-releasing factor receptor 2/Corticotropin-releasing factor-binding protein; experiment: activators of CRF receptor 2 with binding protein – uHTS hits, confirmation (AID 602473); type: functional; conditions: read-out: EC50_Mean

T2 sequence (P49327 whole entry): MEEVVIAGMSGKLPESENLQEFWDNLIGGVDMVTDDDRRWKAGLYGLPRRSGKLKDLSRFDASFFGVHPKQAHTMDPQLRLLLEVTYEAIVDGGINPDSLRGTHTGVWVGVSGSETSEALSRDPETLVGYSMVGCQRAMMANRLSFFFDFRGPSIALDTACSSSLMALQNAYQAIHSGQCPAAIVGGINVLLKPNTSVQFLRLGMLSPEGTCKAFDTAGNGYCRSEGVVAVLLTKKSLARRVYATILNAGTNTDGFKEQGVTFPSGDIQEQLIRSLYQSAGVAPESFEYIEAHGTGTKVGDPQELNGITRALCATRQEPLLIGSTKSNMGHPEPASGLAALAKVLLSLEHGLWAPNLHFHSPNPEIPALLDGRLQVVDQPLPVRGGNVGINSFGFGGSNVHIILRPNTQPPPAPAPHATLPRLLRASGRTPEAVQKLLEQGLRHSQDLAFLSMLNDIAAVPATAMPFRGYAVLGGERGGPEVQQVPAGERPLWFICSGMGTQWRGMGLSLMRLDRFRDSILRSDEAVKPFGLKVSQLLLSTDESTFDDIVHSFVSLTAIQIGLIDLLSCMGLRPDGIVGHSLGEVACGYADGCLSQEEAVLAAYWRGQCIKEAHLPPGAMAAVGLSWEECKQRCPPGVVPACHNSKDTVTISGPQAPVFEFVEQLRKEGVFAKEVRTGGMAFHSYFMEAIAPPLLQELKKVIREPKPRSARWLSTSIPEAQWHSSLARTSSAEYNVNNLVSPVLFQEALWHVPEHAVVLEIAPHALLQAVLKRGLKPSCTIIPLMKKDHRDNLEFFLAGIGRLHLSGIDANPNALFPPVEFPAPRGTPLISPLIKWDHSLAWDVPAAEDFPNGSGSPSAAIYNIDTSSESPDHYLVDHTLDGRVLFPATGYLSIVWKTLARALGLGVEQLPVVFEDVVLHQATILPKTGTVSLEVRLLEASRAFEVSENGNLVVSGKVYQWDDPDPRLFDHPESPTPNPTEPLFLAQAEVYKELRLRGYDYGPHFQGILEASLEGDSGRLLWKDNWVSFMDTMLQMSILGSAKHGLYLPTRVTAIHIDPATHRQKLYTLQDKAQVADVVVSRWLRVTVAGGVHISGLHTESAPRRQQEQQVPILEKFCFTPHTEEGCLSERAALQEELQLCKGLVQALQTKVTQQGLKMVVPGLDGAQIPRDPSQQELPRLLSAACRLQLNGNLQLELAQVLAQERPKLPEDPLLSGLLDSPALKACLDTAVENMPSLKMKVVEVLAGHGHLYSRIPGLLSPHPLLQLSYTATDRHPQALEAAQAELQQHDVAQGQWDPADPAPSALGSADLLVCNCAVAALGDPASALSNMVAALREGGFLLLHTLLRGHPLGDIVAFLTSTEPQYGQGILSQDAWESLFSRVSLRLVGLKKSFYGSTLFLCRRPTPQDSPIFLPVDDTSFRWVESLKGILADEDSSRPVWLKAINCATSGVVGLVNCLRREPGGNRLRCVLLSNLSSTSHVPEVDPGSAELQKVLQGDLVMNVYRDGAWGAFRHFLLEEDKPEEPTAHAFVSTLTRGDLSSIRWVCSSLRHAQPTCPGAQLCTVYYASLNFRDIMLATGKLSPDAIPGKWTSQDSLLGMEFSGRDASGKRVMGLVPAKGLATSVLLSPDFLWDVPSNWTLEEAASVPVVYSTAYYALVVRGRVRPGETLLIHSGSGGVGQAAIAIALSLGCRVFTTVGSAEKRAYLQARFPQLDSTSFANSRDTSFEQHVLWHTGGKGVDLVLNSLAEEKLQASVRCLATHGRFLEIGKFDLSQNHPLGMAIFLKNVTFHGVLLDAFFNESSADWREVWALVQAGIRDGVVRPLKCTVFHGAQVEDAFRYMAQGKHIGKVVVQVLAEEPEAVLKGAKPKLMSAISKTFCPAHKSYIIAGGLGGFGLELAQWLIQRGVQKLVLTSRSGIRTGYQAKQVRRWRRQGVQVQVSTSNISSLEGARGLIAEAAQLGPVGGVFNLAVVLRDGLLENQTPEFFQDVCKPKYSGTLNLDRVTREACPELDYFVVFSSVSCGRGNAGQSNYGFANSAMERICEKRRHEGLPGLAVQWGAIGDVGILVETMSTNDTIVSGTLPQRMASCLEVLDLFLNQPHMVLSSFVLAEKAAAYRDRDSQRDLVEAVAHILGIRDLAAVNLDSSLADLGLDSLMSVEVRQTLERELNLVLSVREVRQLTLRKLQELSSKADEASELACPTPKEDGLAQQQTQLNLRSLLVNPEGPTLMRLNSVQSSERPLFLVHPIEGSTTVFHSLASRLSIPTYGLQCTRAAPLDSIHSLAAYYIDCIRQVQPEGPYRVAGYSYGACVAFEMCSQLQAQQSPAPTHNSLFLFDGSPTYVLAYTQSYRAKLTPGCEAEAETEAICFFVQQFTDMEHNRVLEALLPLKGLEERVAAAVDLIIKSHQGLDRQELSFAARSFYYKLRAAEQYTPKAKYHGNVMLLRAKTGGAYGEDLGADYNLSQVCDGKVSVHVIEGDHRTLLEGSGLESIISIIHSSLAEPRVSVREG
Sequence of Cytochrome P450 2D6 (P10635 whole entry): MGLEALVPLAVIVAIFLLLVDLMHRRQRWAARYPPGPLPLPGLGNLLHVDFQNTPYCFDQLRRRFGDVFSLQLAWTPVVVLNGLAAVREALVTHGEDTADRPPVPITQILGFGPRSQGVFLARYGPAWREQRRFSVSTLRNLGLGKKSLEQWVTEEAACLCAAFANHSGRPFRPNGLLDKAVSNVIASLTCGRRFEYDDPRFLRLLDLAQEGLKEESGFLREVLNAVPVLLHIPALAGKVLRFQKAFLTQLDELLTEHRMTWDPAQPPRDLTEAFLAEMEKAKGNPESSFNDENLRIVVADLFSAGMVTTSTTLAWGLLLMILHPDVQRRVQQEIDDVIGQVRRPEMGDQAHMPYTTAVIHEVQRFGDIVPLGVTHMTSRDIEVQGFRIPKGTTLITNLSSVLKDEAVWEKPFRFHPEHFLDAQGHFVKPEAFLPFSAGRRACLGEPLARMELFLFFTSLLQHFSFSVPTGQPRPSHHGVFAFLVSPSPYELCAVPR

SMILES: c1ccc(-c2cn3nc(-c4ccccc4)sc3n2)cc1
- EC50 [1]: 0.583 µM (active)
- EC50 [2]: < 0.16 µM (active)
- EC50 [3]: 0.402 µM (inconclusive)

SMILES: CC(Cc1cccs1)NC(=O)Nc1ccc(Cl)c(Cl)c1 (centres undefined)
- EC50 [4]: 17.4 µM (active)
- EC50 [5]: 22.6 µM (active)

SMILES: CCN(CC)S(=O)(=O)c1ccc(N2CCc3ccccc3C2)nc1
- IC50 (Fatty acid synthase [6]): 4.19 µM (active)
- IC50 (Fatty acid synthase [7]): 9.71 µM (active)

SMILES: O=C(COC(=O)c1cccc([N+](=O)[O-])c1)NC1CCCC1
- IC50 (Fatty acid synthase [6]): 9.58 µM (active)
- IC50 (Fatty acid synthase [7]): 8.78 µM (active)

SMILES: O=C(COC(=O)c1[nH]nc2ccccc12)NC(=O)NC12CC3CC(CC(C3)C1)C2
- EC50 [4]: 14.8 µM (active)
- EC50 [5]: 22.1 µM (active)

SMILES: CC1=C(C#N)C(=O)N(C)C(=O)/C1=C\N
- EC50 [8]: > 300 µM (not active)
- EC50 [9]: > 300 µM (not active)

SMILES: O=[N+]([O-])c1ccccc1-c1cc(-c2cc(Cl)ccc2O)n[nH]1
- EC50 [4]: 19.5 µM (active)
- EC50 [5]: 27 µM (active)

SMILES: Cc1ccn2c(=O)nc(SCC(=O)N3N=C(c4cccs4)CC3c3ccc(F)cc3)nc2c1 (centres undefined)
- EC50 [10]: 1.35 µM (active)
- EC50 [11]: > 60 µM (not active)
- IC50 (Fatty acid synthase [6]): 13.9 µM (active)
- IC50 (Fatty acid synthase [7]): 10.3 µM (active)

SMILES: O=C(Cc1ccc([N+](=O)[O-])cc1)Nc1cc(C(F)(F)F)cc(C(F)(F)F)c1
- EC50 [10]: 2.18 µM (active)
- CC50 [12]: 8.99 µM (active)
- EC50 [11]: 7.77 µM (active)

SMILES: Cc1cc(C)c(Cn2cnc(-c3ccc([N+](=O)[O-])cc3)c2)c(C)c1
- IC50 (Fatty acid synthase [6]): 12.9 µM (active)
- IC50 (Fatty acid synthase [7]): 12.6 µM (active)
- AC50 (Cytochrome P450 2D6): 28.2 µM (inconclusive)

SMILES: Cc1ccc(OCC(=O)Nc2ccc(O)c(-c3nc4ccccc4o3)c2)cc1
- EC50 [4]: 26.8 µM (active)
- EC50 [5]: 32.7 µM (active)

SMILES: Fc1ccc(-n2c(Cc3ccccc3)nnc2SCc2nc(-c3ccc(Cl)cc3)no2)cc1
- IC50 (Fatty acid synthase [6]): 14 µM (active)
- IC50 (Fatty acid synthase [7]): 8.88 µM (active)

SMILES: Nc1c(C(=O)Nc2ccc(S(=O)(=O)N3CCCC3)cc2)sc2nc3cc4c(cc3cc12)CCC4
- CC50 [13]: 27.9 µM (active)
- EC50 [4]: 4.9 µM (active)
- EC50 [5]: 4.81 µM (active)
- AC50 (INS1): 3.29 µM (active)

SMILES: CN(C)c1ccc(-c2noc(-c3ccccc3O)n2)cc1
- EC50 [1]: 10.5 µM (inconclusive)

SMILES: CC(C)(C)c1nc(SCC(=O)Nc2nc3c(s2)CCCC3)c2ccccc2n1
- EC50 [10]: 1.45 µM (active)
- CC50 [12]: 38.7 µM (active)
- EC50 [11]: 12.5 µM (active)

SMILES: CCCCNC(=O)C1CC(c2c(Cl)cccc2Cl)=NO1 (centres undefined)
- EC50 [4]: 21.8 µM (active)
- EC50 [5]: 29.6 µM (active)

SMILES: O=C(/C=C/c1cccc([N+](=O)[O-])c1)NCCc1ccc(F)cc1
- IC50 (Fatty acid synthase [6]): 10.7 µM (active)
- IC50 (Fatty acid synthase [7]): 11.8 µM (active)

SMILES: Cc1c(C)c2ccc(OCC(=O)N3CCN(c4ccccc4)CC3)cc2oc1=O
- IC50 (Fatty acid synthase [6]): 5.34 µM (active)
- IC50 (Fatty acid synthase [7]): 6.95 µM (active)

SMILES: COc1ccc(C(=O)Nc2nc(-c3ccc([N+](=O)[O-])cc3)c(-c3ccccc3)s2)cc1
- EC50 [8]: > 300 µM (not active)
- EC50 [9]: > 300 µM (not active)

SMILES: COc1ccc(-c2csc(NC(C)c3nc4cc(Cl)c(N5CCCCC5)cc4n3CCCO)n2)cc1 (centres undefined)
- CC50 [12]: > 40 µM (active)

SMILES: O=C(c1cc2cc3ccc(Cl)cc3nc2o1)N1CCCCCC1
- IC50 (Fatty acid synthase [6]): 18.7 µM (active)
- IC50 (Fatty acid synthase [7]): 15.6 µM (active)

SMILES: C=CCN=C(S)N1CCN(c2cccc(C(F)(F)F)c2)CC1
- EC50 [8]: > 300 µM (not active)
- EC50 [9]: > 300 µM (not active)

SMILES: COc1ccc(C2C(C#N)=C(N)OC3=C2C(=O)CC(C)(C)C3)c(OC)c1OC (centres undefined)
- EC50 [8]: > 300 µM (not active)
- EC50 [9]: > 300 µM (not active)

SMILES: Cc1noc(C)c1NC(=O)Nc1cccc2c1O[C@H](CN(C)C(=O)Nc1ccccc1)[C@@H](C)CN([C@H](C)CO)C2=O
- IC50 (Fatty acid synthase [6]): 13 µM (active)
- IC50 (Fatty acid synthase [7]): 9.53 µM (active)

SMILES: NC(=S)N/N=C/c1ccc(-c2ccc(SC(F)F)cc2)o1
- EC50 [10]: 0.895 µM (active)
- EC50 [11]: 12.7 µM (active)
- IC50 [14]: > 47.1 µM (inactive)
- EC50 [15]: > 53 µM (inactive)
- IC50 (Fatty acid synthase [6]): 16.9 µM (active)
- IC50 (Fatty acid synthase [7]): 80 µM (inactive)

SMILES: O=C(CNc1cccc2ccccc12)N/N=C/C(Br)=C/c1ccccc1
- EC50 [4]: 22.9 µM (active)
- EC50 [5]: 25.8 µM (active)

SMILES: O=C(CC1C[C@H](C(=O)N2CCOCC2)[C@@]2(CCC3CCCC3)c3[nH]c4ccccc4c3CCN2C1=O)NCCN1CCOCC1 (some centres undefined)
- IC50 (Fatty acid synthase [6]): 2.6 µM (active)
- IC50 (Fatty acid synthase [7]): 2.17 µM (active)

SMILES: CC1CCCC(C)N1/N=C/c1c[nH]c2ccc(Br)cc12 (centres undefined)
- CC50 [12]: 24.4 µM (active)

SMILES: CCc1ccc2oc(-c3cc(/N=C/c4cccc(OC)c4O)ccc3O)nc2c1
- EC50 [10]: 2.45 µM (active)
- CC50 [12]: > 40 µM (active)
- EC50 [11]: > 30 µM (not active)

SMILES: COC1=CC(=O)c2ccccc2C1=O [2-Methoxy-1,4-naphthoquinone]
- CC50 [12]: 12.7 µM (active)
